For experiment [1], the target named is T1, Dihydroorotate dehydrogenase (quinone), mitochondrial (Homo sapiens, UniProt Q02127). As to the kind of experiment: Inhibition of human DHODH.
A short description of experiment [2]: Selectivity index, ratio of IC50 for human DHODH to IC50 for Schistosoma mansoni DHODH.
A short description of experiment [3]: Inhibition of Babesia bovis DHODH.
Experiment [4] can be described thus: Inhibition of Aspergillus fumigatus DHODH.
Another experiment concerns Yellow fever virus. As to the kind of experiment: Antiviral activity against Yellow fever virus infected in human A549 cells assessed as reduction in virus replication. Type of experiment: functional, organism-based.
Experiment [5] concerns Vesicular stomatitis virus. In words: Antiviral activity against Vesicular stomatitis virus infected in human A549 cells assessed as reduction in virus replication. Type of experiment: functional, organism-based.
Experiment [6] deals with Western equine encephalitis virus. In words: Antiviral activity against Western equine encephalomyelitis virus infected in human A549 cells assessed as reduction in virus replication. The class given is functional, organism-based.
Another experiment has as its system West Nile virus. As to the kind of experiment: Antiviral activity against West Nile virus infected in human A549 cells assessed as reduction in virus replication. The class given is functional, organism-based.
Experiment [7] deals with Dengue virus. In words: Antiviral activity against Dengue virus infected in human A549 cells assessed as reduction in virus replication. The class given is functional, organism-based.
Experiment [8] in a line: Inhibition of Plasmodium falciparum DHODH.
Experiment [9] can be described thus: Inhibition of Helicobacter pylori DHODH.
Experiment [10] deals with T1, Dihydroorotate dehydrogenase (quinone), mitochondrial. In words: Inhibition of DHODH (unknown origin).
Experiment [11] has as its system Dengue virus. As to the kind of experiment: Antiviral activity against Dengue virus assessed as reduction in virus replication. Type of experiment: functional, organism-based.
The next experiment relates to Helicobacter pylori. In words: Antibacterial activity against Helicobacter pylori by whole cell-based assay. Type of experiment: functional.
Experiment [12] can be described thus: Inhibition of Escherichia coli DHODH.
Experiment [13] can be described thus: Inhibition of Enterococcus faecalis DHODH.
A further experiment concerns Human alphaherpesvirus 2. In words: Antiviral activity against Herpes simplex viruses type 2. The class given is functional, organism-based.
The nature of experiment [14]: Antiviral activity against Human herpesvirus 6 type A. Type of experiment: functional, Human herpesvirus 6A.
The next experiment deals with Human alphaherpesvirus 1. As to the kind of experiment: Antiviral activity against Herpes simplex viruses type 1. Type of experiment: functional, organism-based.
The next experiment concerns Human alphaherpesvirus 3. In words: Antiviral activity against Varicella zoster virus. The class given is functional, organism-based.
A further experiment has as its system Cytomegalovirus. As to the kind of experiment: Antiviral activity against Cytomegalovirus. The class given is functional, organism-based. The note with it: Human betaherpesvirus 5.

Values after ≈ are worked out from the molar mass of the structure shown. Where only a bound is given, the exact number is not on record here.

The values below come from ChEMBL document CHEMBL4402534, “Dihydroorotate dehydrogenase inhibitors in anti-infective drug research” (Eur J Med Chem, 2019).

T1 sequence (Q02127 whole entry): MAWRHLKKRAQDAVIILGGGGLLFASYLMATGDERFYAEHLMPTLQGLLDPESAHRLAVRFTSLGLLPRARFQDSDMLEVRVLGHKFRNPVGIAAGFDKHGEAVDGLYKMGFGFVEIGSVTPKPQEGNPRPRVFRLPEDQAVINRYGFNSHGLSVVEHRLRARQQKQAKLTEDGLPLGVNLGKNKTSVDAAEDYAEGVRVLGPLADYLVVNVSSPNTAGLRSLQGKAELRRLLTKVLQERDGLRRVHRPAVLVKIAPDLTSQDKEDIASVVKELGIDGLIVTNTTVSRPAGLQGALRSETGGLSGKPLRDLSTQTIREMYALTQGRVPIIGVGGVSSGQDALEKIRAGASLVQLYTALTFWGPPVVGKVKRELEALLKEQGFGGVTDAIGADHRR

A word on the IC50: it is the concentration needed to halve the response being measured. As to `O=C1C(O)=C([C@H]2CC[C@H](c3ccc(Cl)cc3)CC2)C(=O)c2ccccc21` [ATOVAQUONE], the IC50 in [1] worked out at 2600 nM; in [3], 2.38 nM. The Ratio IC50 in [2] came out at 6.

`Cc1cc(-c2ccccc2)c(C(=O)C(=O)Nc2ccc(N3CCN(c4ncc(F)cn4)CC3)cc2)n1C` [OLOROFIM]: the figures for the IC50 in experiment [4] and in [1] were 44 nM and above 100000 nM, respectively.

As a reminder, the EC50 is the concentration at which the effect is half-maximal. With `COC(=O)c1c(-c2c(Cl)cccc2Cl)noc1-c1cnn(-c2cccc(Cl)c2)c1C(F)(F)F`, the EC50 (in the experiment with Yellow fever virus; in experiment [5]; in experiment [6]; in the experiment on West Nile virus; with Dengue virus [7]) was 2.4 nM throughout. In addition, the IC50 in [1] stood at 103 nM.

Consider `Cc1cc(Nc2ccc(S(F)(F)(F)(F)F)cc2)n2ncnc2n1`, for which, in [8], inhibition was half-maximal at 130 nM (IC50).

As for `Cc1oncc1C(=O)Nc1ccc(C(F)(F)F)cc1` [LEFLUNOMIDE], in experiment [3], the IC50 was 52400 nM.

In the case of `CCCCCCCCc1[nH]c2ccccc2c(=O)c1C`, in experiment [9], the midpoint of inhibition, the IC50, lay at 4550 nM.

In turn, `Cc1[nH]c2ccc(-c3nnc(SCC(=O)N4CCCC4)o3)cc2c1C` came in with an IC50 in experiment [10] of 1130 nM.

For the compound `Cc1nc2c(C#N)cccc2n1-c1ccc(C(=O)NC2CC2)s1`, in experiment [8], the midpoint of inhibition, the IC50, lay at 50 nM.

The Ki is a measure of affinity in units of concentration, obtained from inhibition or displacement. The compound `O=C(N[C@@H]1CCCc2c1[nH]c1ccc(Cl)cc21)c1ccccn1` registered an inhibition constant (Ki) in experiment [1] of 203 nM. Moreover, in the experiment on Dengue virus [11], the concentration for half-maximal inhibition (IC50) was determined as 13.3 nM.

One may read the MIC as the lowest concentration found to suppress growth. Read a low MIC as greater potency. `COc1ccc(-n2nc(C(=O)NCc3ccccc3)cc2C(=O)Nc2ccc(C(=O)N3CCCC3)cc2)cc1` showed an MIC with Helicobacter pylori of 3 µg/mL (≈ 5.73 µM). In experiment [9], this compound registered a Ki of 26 nM.

In turn, `CSC(=NCn1c(C/C=C(\C)CCC=C(C)C)c(C)c(=O)c2ccccc21)SC` returned an IC50 in experiment [9] of 11100 nM.

The compound `COc1ccc(-n2nc(C(=O)Nc3ccccc3O)cc2C(=O)Nc2ccc(C(=O)N3CCCC3)cc2)cc1` yielded a Ki in [9] of 50 nM.

Consider `Cc1c(-c2ccc(-c3ccccc3F)cc2)nc2ccc(F)cc2c1C(=O)O` [BREQUINAR], for which the EC50 (in the experiment with Yellow fever virus; in experiment [5]; in experiment [6]; with West Nile virus; in the experiment with Dengue virus [7]) was 78 nM each time. Further, half-maximal inhibition in [3] (IC50) was put at 52400 nM.

`O=c1sn(-c2ccccc2)c(=O)n1-c1ccc(F)cc1`: the values for the concentration for half-maximal inhibition (IC50) in experiment [1], in experiment [12] and in experiment [13] were above 100000 nM, 840 nM and 75 nM, respectively.

For `C[C@H](c1ccc(-c2ccccc2)cc1)N(C)C(=O)CSc1nnnn1-c1ccc(O)cc1`, in experiment [10], inhibition was half-maximal at 41000 nM (IC50).

Turning to `O=C(Nc1c(F)c(F)c(-c2cccc(OC(F)(F)F)c2)c(F)c1F)c1ccsc1C(=O)O` [KIO-100], the concentration for half-maximal inhibition (IC50) was above 10000 nM with Human alphaherpesvirus 2; 1.55 nM in [14]; above 10000 nM in the experiment on Human alphaherpesvirus 1; 3.55 nM with Human alphaherpesvirus 3; 1500 nM with Cytomegalovirus.

As to `Cc1nc2c(OC(F)F)cccc2n1-c1ccc(C(=O)NC2CC2)s1`, the IC50 in [8] amounted to 220 nM.

On to `O=C(NCc1cccnc1)c1cc(C(=O)Nc2ccccc2)n(-c2ccc(Cl)cc2)n1`, for which the MIC in the experiment with Helicobacter pylori turned out to be 0.25 µg/mL (≈ 0.579 µM). The same compound had a Ki in [9] of 4 nM.

In the case of `O=C(NCc1ccccc1)c1cc(C(=O)Nc2ccccc2)n(-c2ccc(Cl)cc2)n1`, it took 0.125 µg/mL (≈ 0.29 µM) to inhibit growth against Helicobacter pylori (MIC). Moreover, affinity in experiment [9] was put at a Ki of 4 nM.

`Cc1nc2cc(OC(F)(F)F)ccc2n1-c1ccc(C(=O)NC2CC2)s1` had an IC50 in experiment [8] of 220 nM.
